# Laboratory results reported in US20100047762A1, “METHOD TO MONITOR DRUG EFFICACY IN DIABETIC PATIENTS USING AN ASSAY FOR 1,5-ANHYDRO-D-GLUCITOL” (NIPPON KAYAKU KABUSHIKI KAISHA, priority 2007, published 2010).
# Key:
# [1] = system: patients with type I diabetes (T1DM); test: Post-hoc analysis of randomized, double-blind, placebo-controlled study of pramlintide in T1DM subjects on intensive insulin therapy (baseline HbA1c≦8%); type: in vivo, human
# Procedure: 1,5-AG was assessed as a marker of post-prandial blood glucose (PPG) control in pramlintide-treated patients with type I diabetes (TIDM). PPG is the glucose that appears in the blood stream and tissues after a meal. PPG predominates in the serum over average fasting glucose at HbA1c's less than 8.5%. Antihyperglycemic drugs affect PPG.
# Post-hoc analysis of a randomized, double-blind, placebo-controlled study of a subset of subjects with T1DM on intensive insulin therapy with a baseline HbA1c≦8% (N=37, age 40±12 y; HbA1c 7.5±0.3%; weight 85.9±20.8 kg; mean±SD) treated with pramlintide (30/60 μg) or placebo with major meals.
# • HbA1c, weight, and insulin dose measured at scheduled visits • Pre-prandial and post-prandial self-monitored blood glucose (SMBG) daily • Plasma 1,5-AG (GlycoMark assay) measured at baseline and week 29
# • All evaluable subjects with a baseline HbA1c≦8% and 1,5-AG measured at baseline and week 29 • Mean (±SE) change from baseline HbA1c, body weight, PPG, insulin use and 1,5-AG at week 29 • A repeated measures analysis across all study visits was performed comparing pramlintide and placebo groups
# [2] = following a meal; cited from earlier work
smiles,measurement,setting,value
"CC[C@H](C)[C@H](NC(=O)[C@@H]1CCCN1C(=O)CNC(=O)[C@H](Cc1ccccc1)NC(=O)[C@H](CC(N)=O)NC(=O)[C@H](CC(N)=O)NC(=O)[C@H](CO)NC(=O)[C@H](CO)NC(=O)[C@H](Cc1c[nH]cn1)NC(=O)[C@@H](NC(=O)[C@H](CC(C)C)NC(=O)[C@H](Cc1ccccc1)NC(=O)[C@H](CC(N)=O)NC(=O)[C@H](C)NC(=O)[C@H](CC(C)C)NC(=O)[C@H](CCCNC(=N)N)NC(=O)[C@H](CCC(N)=O)NC(=O)[C@@H](NC(=O)[C@H](C)NC(=O)[C@@H]1CSSC[C@H](NC(=O)[C@@H](N)CCCCN)C(=O)N[C@@H](CC(N)=O)C(=O)N[C@@H]([C@@H](C)O)C(=O)N[C@@H](C)C(=O)N[C@@H]([C@@H](C)O)C(=O)N1)[C@@H](C)O)C(C)C)C(=O)N[C@@H](CC(C)C)C(=O)N1CCC[C@H]1C(=O)N1CCC[C@H]1C(=O)N[C@H](C(=O)N[C@@H](CC(N)=O)C(=O)N[C@H](C(=O)NCC(=O)N[C@@H](CO)C(=O)N[C@@H](CC(N)=O)C(=O)N[C@H](C(=O)N[C@@H](Cc1ccc(O)cc1)C(N)=O)[C@@H](C)O)C(C)C)[C@@H](C)O [Pramlintide, L-Lysyl-L-cysteinyl-L-asparaginyl-L-threonyl-L-alanyl-L-threonyl-L-cysteinyl-L-alanyl-L-threonyl-L-glutaminyl-L-arginyl-L-leucyl-L-alanyl-L-asparaginyl-L-phenylalanyl-L-leucyl-L-valyl-L-histidyl-L-seryl-L-seryl-L-asparaginyl-L-phenylalanyl-glycyl-L-protyl-L-isoleucyl-L-leucyl-L-protyl-L-threonyl-L-asparaginyl-L-valyl-L-glycyl-L-seryl-L-prollneamylin (human) acetate hydrate]","Body Weight, % Change from baseline",[1]; 4 weeks,−0.7%
same,"Body Weight, Mean",[1]; 4 weeks,84.2 kg
same,"HbA1c, % Change from baseline",[1]; 4 weeks,−7.4%
same,"PPG, % Change from baseline",[1]; 4 weeks,−18.9%
same,"PPG, Mean",[1]; 4 weeks,143 mg/dL
same,"HbA1c, Mean","[1]; 4 weeks, n = 18",7.0%
same,"Plasma 1,5-AG, % Change from baseline","[1]; 4 weeks, pramlintide 30/60 μg with major meals",15.9%
same,"Plasma 1,5-AG, Mean","[1]; 4 weeks, pramlintide 30/60 μg with major meals, n = 18",6.4 µg/mL
same,"Body Weight, % Change from baseline",[1]; 16 weeks,−2.8%
same,"Body Weight, Mean",[1]; 16 weeks,82.5 kg
same,"HbA1c, % Change from baseline",[1]; 16 weeks,−7.0%
same,"PPG, % Change from baseline",[1]; 16 weeks,−16.8%
same,"PPG, Mean",[1]; 16 weeks,145 mg/dL
same,"Plasma 1,5-AG, % Change from baseline",[1]; 16 weeks,23.4%
same,"HbA1c, Mean","[1]; 16 weeks, n = 16",7.2%
same,"Plasma 1,5-AG, Mean","[1]; 16 weeks, n = 17",7 µg/mL
same,"Body Weight, % Change from baseline",[1]; 29 weeks,−2.2%
same,"Body Weight, Mean",[1]; 29 weeks,83.0 kg
same,"HbA1c, % Change from baseline",[1]; 29 weeks,−4.5%
same,"PPG, % Change from baseline",[1]; 29 weeks,−27.2%
same,"PPG, Mean",[1]; 29 weeks,135 mg/dL
same,"Plasma 1,5-AG, % Change from baseline",[1]; 29 weeks,29.8%
same,most common adverse event associated with pramlintide use,[1]; 29 weeks of treatment,mild to moderate nausea
same,"HbA1c, Mean","[1]; 29 weeks, n = 18",7.4%
same,"Plasma 1,5-AG, Mean","[1]; 29 weeks, n = 18",6.9 µg/mL
same,"fasting plasma 1,5-AG levels, relative change from baseline","[1]; baseline to wk 29, mean±SE, P<0.01 vs placebo",+30±16%
same,"fasting plasma 1,5-AG levels, absolute change from baseline","[1]; baseline to wk 29, mean±SE, P<0.05 vs placebo",+0.96±0.91 μg/mL
same,mealtime insulin use,"[1]; week 29, pramlintide-treated subjects",significantly decreased
same,"2 hr PPG excursions, change from baseline","[1]; week 29, n=18, mean±SE, P<0.001 vs placebo",-43.9 ± 10.9 mg/dL
same,"body weight, change from baseline","[1]; week 29, n=18, mean±SE, P<0.01 vs placebo",-2.0 ± 1.2 kg
same,"HbA1c, change from baseline","[1]; week 29, n=18, mean±SE, similar to placebo",−0.18±0.31%
same,duration of the slowing of gastric emptying following Pramlintide administration,[2],approximately 3 hours
